Data as given in patent US20230125429A1 (priority 2017, published 2023).

Assays:
[1] = test system: HepG2-GFP orthotopic xenograft tumor; conditions: Triptonide 25 mg/kg by gavage every other day; Sorafenib intraperitoneal; n=10 per cohort
PKA = assay: Measurement of PKA activity in HepG2 cells; type: cell-based, human; conditions: one-hour treatment in regular medium (Trypsin 50 nM, Triptonide 1 µM); hour 9 and 10 after mimosine
ERK phosphorylation = ERK phosphorylation in HepG2 cells (Western blot); type: cell-based, human; conditions: serum-starved HepG2; trypsin 50 nM, Triptolide 1 µM, Triptonide 1 µM; 0-40 minutes
cAMP = assay: Measurement of cAMP levels in HepG2 cells; type: cell-based, human; conditions: treatment 2 hours after mimosine; Trypsin 50 nM, Triptonide 1 µM; serum-free
[2] = test system: mimosine treated HepG2 cells; assay: Cell cycle analysis by flow cytometry (PI staining); type: cell-based, human; conditions: 2 µM, by 24 hours
[3] = test system: Par2 knockout keratinocytes; assay: Growth of Par2 knockout primary keratinocytes, one hour treatment; type: cell-based, mouse; conditions: as high as 800 nM, one hour
[4] = test system: Par2 knockout keratinocytes; assay: Growth of Par2 knockout primary keratinocytes, continuous exposure; type: cell-based, mouse; conditions: as low as 1.25 nM (lowest examined)
Experimental: For the neonatal mouse keratinocyte culture, the dorsal skins of neonatal wild type or Par2 knockout mice were harvested from wild type or Par2 knockout mice, respectively. The skins were incubated overnight at 4° C. in a 0.25% solution of trypsin (Life Technologies, USA) in phosphate-buffered saline (PBS) without calcium and magnesium. The epidermis was then separated from the adjoining dermis, and the dispersed epidermal cells were collected in suspension Eagle’s minimal essential medium (SMEM) (Life Technologies, USA) supplemented with glutamine and 8% calcium free fetal calf serum (FCS) (Life Technologies, USA). The cells were plated onto individual wells of 48 well plates (Corning, USA), which were pre-coated with collagen (Life Technologies, USA), at a density of 70,000 cells/well. The cell cultures were kept for 12 hours at 34° C. in a humidified incubator containing 8% CO2. […]
For primary hepatocytes, the seeded cells were monitored for up to 48 hours either without any treatment (as a control) or with various types of treatments. For primary keratinocytes, cells in 48-well plates were monitored either without any treatment or with various types of treatment for up to 96 hours. For HepG2, cells 96-well plates were monitored either without any treatment or with various types of treatments for up to 48 hours. […]

wild-type keratinocytes [5] = assay: Growth of wild-type primary keratinocytes, continuous exposure; type: cell-based, mouse; conditions: as low as 1.25 nM (lowest examined), continuous exposure
Experimental: For the neonatal mouse keratinocyte culture, the dorsal skins of neonatal wild type or Par2 knockout mice were harvested from wild type or Par2 knockout mice, respectively. The skins were incubated overnight at 4° C. in a 0.25% solution of trypsin (Life Technologies, USA) in phosphate-buffered saline (PBS) without calcium and magnesium. The epidermis was then separated from the adjoining dermis, and the dispersed epidermal cells were collected in suspension Eagle’s minimal essential medium (SMEM) (Life Technologies, USA) supplemented with glutamine and 8% calcium free fetal calf serum (FCS) (Life Technologies, USA). The cells were plated onto individual wells of 48 well plates (Corning, USA), which were pre-coated with collagen (Life Technologies, USA), at a density of 70,000 cells/well. The cell cultures were kept for 12 hours at 34° C. in a humidified incubator containing 8% CO2. Low calcium (0.05 mM) S-MEM, containing 8% FCS was then added to initiate the culture. The culture medium was changed every 2 days.
For primary hepatocytes, the seeded cells were monitored for up to 48 hours either without any treatment (as a control) or with various types of treatments. For primary keratinocytes, cells in 48-well plates were monitored either without any treatment or with various types of treatment for up to 96 hours. For HepG2, cells 96-well plates were monitored either without any treatment or with various types of treatments for up to 48 hours. The IncuCyte Zoom was set to take a set of images at fixed locations (4 per well for 96-well plates and 16 per well for 48-well plates and 12-well plates) every three hours.
To address this question, we took a genetic approach.

[6] = test system: mimosine-treated HepG2 cells; assay: One-hour treatment of mimosine-treated HepG2 cells, live cell imaging; type: cell-based, human; conditions: one-hour treatment
wild-type keratinocytes [7] = assay: Growth of wild-type primary keratinocytes, short-term treatment; type: cell-based, mouse; conditions: as high as 800 nM, one hour
HepG2 cells = assay: Blocking the AC-cAMP-PKA pathway, growth of HepG2 cells; type: cell-based, human; conditions: Triptonide 1 µM, Vidarabine 10 µM, PKI 2.5 µM, alone or combined

CNC(=O)c1cc(Oc2ccc(NC(=O)Nc3ccc(Cl)c(C(F)(F)F)c3)cc2)ccn1 [Sorafenib, reference compound] was tested, and the “tumor specific (GFP) signals” value [1] was “lower intensities of the tumor specific signals at all time points”.
With Trypsin the “level of PKA activity around G2/M transition” value (PKA) was “reduced significantly”, the “levels of phosphorylated ERK” value (ERK phosphorylation) was “two-stage increase” and the “levels of cAMP” value (cAMP) was “modest and transient elevations”.
With CC(C)[C@]12O[C@H]1[C@@H]1O[C@]13[C@]1(O[C@H]1C[C@H]1C4=C(CC[C@@]13C)C(=O)OC4)[C@@H]2O [Triptolide, reference compound] the “sub-G1 (<2N, apoptotic) population” value [2] was “significant peaks of the sub-G1”, the “growth inhibitory effect on Par2 knockout keratinocytes” value [3] was “did not have any significant growth inhibitory effect” and the “lethality for Par2 knockout keratinocytes” value [4] was “complete lethality”. The “levels of phosphorylated ERK” value (ERK phosphorylation) was “no significant effects”, the “lethality for wild-type keratinocytes” value (wild-type keratinocytes [5]) was “complete lethality” and the “growth and mitotic catastrophe” value ([6]; 1 µM, regardless of time) was “growth inhibitory, but did not cause mitotic catastrophe”. The “growth and chromatin condensation” value ([6]; 2 µM, at 0 and 2 hours after mimosine treatment) was “not only growth inhibitory, but also caused chromatin condensation” and the “growth inhibitory effect on wild-type keratinocytes” value (wild-type keratinocytes [7]) was “did not have any significant growth inhibitory effect”.
Nc1ncnc2c1ncn2[C@@H]1O[C@H](CO)[C@@H](O)[C@@H]1O [Vidarabine, reference compound] was tested, and the “effect on growth of HepG2 cells” value (HepG2 cells) was “no significant effects”.
